Measurements published in the kinase profiling compilation of Christmann-Franck et al. (2016).

Key:
Assay in all cases: radiometric filter-binding kinase assay, Kinase HotSpot
Conditions in all cases: compound 0.5 µM; ATP 10 µM
PAK2 (human) = PAK2 (human) (UniProt Q13177)
EPHA3 (human) = EPHA3 (human) (UniProt P29320)
DDR2 (human) = DDR2 (human) (UniProt Q16832)
EPHA8 (human) = EPHA8 (human) (UniProt P29322)
PAK7 (human) = PAK7 (human) (UniProt Q9P286)
PHKG1 (human) = PHKG1 (human) (UniProt Q16816)
HIPK2 (human) = HIPK2 (human) (UniProt Q9H2X6)
PRKD3 (human) = PRKD3 (human) (UniProt O94806)
MAPK10 (human) = MAPK10 (human) (UniProt P53779)
CAMK1D (human) = CAMK1D (human) (UniProt Q8IU85)
NTRK3 (human) = NTRK3 (human) (UniProt Q16288)
PHKG2 (human) = PHKG2 (human) (UniProt P15735)
NEK9 (human) = NEK9 (human) (UniProt Q8TD19)
PAK4 (human) = PAK4 (human) (UniProt O96013)
MELK (human) = MELK (human) (UniProt Q14680)
PRKCA (human) = PRKCA (human) (UniProt P17252)
RPS6KA5 KD2 (human) = RPS6KA5 KD2 (human) (UniProt O75582)
MAP3K9 (human) = MAP3K9 (human) (UniProt P80192)
DYRK3 (human) = DYRK3 (human) (UniProt O43781)
MAPK3 (human) = MAPK3 (human) (UniProt P27361)
MARK2 (human) = MARK2 (human) (UniProt Q7KZI7)
CDK5 CDK5R1 p25 (human) = CDK5 CDK5R1 p25 (human) (UniProt Q00535+Q15078)
CDK5 CDK5R1 p25 (human), sequence (Q00535 whole entry, looked up): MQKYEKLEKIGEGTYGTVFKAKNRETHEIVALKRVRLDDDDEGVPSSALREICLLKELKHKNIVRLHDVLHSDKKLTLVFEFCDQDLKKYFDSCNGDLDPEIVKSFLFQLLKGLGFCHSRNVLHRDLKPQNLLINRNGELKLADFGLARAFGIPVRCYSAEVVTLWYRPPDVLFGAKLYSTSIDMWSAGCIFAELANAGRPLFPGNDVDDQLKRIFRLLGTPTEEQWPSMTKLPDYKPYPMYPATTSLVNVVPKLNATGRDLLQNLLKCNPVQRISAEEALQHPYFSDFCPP
CDK5 CDK5R1 p25 (human), sequence (Q15078 whole entry, looked up): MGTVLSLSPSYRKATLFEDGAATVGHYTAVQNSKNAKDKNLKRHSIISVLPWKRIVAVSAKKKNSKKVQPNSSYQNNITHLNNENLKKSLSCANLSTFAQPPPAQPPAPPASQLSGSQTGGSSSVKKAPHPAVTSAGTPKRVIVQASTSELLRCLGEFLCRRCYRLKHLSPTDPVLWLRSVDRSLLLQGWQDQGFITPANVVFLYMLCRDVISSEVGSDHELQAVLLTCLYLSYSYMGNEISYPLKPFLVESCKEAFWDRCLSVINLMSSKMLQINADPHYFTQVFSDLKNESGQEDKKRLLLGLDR

SGK3 (human) = SGK3 (human) (UniProt Q96BR1)
CLK1 (human) = CLK1 (human) (UniProt P49759)
NLK (human) = NLK (human) (UniProt Q9UBE8)
MLTK (human) = MLTK (human) (UniProt Q9NYL2)
PBK (human) = PBK (human) (UniProt Q96KB5)
GRK6 (human) = GRK6 (human) (UniProt P43250)
GRK6 (human), sequence (P43250 whole entry, looked up): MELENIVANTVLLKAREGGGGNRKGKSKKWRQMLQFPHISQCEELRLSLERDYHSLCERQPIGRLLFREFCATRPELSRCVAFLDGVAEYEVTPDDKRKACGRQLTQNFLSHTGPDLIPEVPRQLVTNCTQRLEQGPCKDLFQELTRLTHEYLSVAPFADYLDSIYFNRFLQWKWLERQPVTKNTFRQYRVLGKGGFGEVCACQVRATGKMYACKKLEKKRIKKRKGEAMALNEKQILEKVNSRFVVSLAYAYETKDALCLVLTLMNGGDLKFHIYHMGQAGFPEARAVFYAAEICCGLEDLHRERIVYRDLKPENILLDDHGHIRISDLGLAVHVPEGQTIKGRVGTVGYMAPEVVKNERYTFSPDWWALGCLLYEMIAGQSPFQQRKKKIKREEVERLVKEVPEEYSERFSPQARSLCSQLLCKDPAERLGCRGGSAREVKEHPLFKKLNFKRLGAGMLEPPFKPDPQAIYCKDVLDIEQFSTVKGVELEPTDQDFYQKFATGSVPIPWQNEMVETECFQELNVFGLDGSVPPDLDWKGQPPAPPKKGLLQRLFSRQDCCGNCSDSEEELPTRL

PRKD2 (human) = PRKD2 (human) (UniProt Q9BZL6)
IKBKE (human) = IKBKE (human) (UniProt Q14164)
SRC (human) = SRC (human) (UniProt P12931)
ACVRL1 (human) = ACVRL1 (human) (UniProt P37023)
IGF1R (human) = IGF1R (human) (UniProt P08069)
MAPK14 (human) = MAPK14 (human) (UniProt Q16539)
MAPK14 (human), sequence (Q16539 whole entry, looked up): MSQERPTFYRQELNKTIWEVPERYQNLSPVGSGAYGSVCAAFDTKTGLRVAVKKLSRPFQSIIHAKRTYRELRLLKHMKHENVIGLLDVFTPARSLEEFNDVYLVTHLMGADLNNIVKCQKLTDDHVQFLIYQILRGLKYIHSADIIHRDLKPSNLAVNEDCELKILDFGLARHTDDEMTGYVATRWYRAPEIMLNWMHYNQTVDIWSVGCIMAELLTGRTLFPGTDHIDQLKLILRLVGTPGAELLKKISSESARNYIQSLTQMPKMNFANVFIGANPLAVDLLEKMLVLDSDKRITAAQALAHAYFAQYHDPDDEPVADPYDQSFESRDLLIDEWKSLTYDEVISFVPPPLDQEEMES

ZAP70 (human) = ZAP70 (human) (UniProt P43403)
ZAP70 (human), sequence (P43403 whole entry, looked up): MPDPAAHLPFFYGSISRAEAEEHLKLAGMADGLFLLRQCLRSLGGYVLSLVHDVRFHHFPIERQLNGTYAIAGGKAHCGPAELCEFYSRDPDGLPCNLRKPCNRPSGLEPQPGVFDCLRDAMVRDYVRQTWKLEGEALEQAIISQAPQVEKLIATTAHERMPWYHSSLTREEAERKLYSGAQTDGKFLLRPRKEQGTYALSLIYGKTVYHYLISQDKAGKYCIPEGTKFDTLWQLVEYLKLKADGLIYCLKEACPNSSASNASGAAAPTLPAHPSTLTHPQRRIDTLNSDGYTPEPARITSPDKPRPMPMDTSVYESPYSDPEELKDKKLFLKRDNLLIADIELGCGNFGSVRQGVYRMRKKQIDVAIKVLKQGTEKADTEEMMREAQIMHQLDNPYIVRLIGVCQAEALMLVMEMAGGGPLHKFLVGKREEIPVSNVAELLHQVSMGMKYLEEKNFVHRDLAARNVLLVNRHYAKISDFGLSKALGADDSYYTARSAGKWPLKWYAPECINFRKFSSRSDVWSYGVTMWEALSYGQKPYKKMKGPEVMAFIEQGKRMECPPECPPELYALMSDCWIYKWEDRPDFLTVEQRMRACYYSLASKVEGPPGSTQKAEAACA

ALK (human) = ALK (human) (UniProt Q9UM73)
ALK (human), sequence (Q9UM73 whole entry, looked up): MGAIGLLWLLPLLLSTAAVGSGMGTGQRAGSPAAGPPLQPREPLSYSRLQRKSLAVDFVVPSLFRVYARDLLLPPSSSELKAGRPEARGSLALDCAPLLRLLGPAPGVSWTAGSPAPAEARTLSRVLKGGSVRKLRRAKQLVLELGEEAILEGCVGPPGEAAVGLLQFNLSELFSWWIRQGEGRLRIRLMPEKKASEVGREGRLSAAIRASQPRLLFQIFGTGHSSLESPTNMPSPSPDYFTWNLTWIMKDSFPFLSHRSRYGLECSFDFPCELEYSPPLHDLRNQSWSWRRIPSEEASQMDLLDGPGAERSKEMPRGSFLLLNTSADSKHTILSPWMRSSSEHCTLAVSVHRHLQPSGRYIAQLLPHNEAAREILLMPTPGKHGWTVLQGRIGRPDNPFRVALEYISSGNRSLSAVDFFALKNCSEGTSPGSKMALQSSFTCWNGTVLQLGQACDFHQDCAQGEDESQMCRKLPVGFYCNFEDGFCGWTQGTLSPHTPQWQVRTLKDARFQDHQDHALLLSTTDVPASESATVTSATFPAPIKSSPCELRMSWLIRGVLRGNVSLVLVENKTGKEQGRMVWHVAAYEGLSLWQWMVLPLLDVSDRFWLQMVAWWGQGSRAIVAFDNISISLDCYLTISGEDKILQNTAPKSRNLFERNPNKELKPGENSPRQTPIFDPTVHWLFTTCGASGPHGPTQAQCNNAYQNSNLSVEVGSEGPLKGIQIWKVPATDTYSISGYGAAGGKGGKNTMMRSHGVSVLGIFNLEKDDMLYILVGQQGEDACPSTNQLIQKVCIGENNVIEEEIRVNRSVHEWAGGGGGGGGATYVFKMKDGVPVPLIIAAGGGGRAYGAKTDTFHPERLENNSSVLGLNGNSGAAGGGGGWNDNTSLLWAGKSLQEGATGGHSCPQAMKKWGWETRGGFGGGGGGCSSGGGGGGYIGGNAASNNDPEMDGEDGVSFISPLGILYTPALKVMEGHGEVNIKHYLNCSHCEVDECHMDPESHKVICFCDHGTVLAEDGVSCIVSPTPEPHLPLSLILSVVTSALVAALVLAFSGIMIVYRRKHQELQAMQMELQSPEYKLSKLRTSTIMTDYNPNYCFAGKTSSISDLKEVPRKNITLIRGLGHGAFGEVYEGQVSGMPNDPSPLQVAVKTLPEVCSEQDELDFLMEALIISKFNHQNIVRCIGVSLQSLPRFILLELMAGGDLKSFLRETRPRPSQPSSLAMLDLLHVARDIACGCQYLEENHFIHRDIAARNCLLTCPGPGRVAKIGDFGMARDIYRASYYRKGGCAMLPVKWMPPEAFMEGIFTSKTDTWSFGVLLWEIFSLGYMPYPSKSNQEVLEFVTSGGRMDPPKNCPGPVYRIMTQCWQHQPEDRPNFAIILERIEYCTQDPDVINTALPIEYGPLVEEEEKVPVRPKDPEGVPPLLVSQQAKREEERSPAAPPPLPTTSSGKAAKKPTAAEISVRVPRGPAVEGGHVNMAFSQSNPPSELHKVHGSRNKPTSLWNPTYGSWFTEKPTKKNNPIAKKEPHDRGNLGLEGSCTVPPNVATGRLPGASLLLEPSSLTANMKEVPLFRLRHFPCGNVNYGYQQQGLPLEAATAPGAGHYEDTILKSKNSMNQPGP

LCK (human) = LCK (human) (UniProt P06239)
AKT2 (human) = AKT2 (human) (UniProt P31751)
AKT2 (human), sequence (P31751 whole entry, looked up): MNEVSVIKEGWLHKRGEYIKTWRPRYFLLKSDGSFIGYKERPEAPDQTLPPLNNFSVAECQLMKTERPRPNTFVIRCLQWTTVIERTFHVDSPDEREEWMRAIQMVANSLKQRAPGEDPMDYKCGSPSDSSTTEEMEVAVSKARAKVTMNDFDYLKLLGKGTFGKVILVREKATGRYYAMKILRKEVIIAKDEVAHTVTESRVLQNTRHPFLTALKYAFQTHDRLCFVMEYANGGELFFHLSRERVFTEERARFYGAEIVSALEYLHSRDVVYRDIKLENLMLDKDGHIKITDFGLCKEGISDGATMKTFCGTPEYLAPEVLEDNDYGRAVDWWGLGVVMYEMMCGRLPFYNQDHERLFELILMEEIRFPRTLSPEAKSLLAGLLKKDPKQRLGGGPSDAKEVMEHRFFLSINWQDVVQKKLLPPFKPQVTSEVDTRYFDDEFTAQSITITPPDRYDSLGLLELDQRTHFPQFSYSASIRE

CSK (human) = CSK (human) (UniProt P41240)
STK3 (human) = STK3 (human) (UniProt Q13188)
GRK4 (human) = GRK4 (human) (UniProt P32298)
PLK1 (human) = PLK1 (human) (UniProt P53350)

PAK7 (human), sequence (Q9P286 whole entry, looked up): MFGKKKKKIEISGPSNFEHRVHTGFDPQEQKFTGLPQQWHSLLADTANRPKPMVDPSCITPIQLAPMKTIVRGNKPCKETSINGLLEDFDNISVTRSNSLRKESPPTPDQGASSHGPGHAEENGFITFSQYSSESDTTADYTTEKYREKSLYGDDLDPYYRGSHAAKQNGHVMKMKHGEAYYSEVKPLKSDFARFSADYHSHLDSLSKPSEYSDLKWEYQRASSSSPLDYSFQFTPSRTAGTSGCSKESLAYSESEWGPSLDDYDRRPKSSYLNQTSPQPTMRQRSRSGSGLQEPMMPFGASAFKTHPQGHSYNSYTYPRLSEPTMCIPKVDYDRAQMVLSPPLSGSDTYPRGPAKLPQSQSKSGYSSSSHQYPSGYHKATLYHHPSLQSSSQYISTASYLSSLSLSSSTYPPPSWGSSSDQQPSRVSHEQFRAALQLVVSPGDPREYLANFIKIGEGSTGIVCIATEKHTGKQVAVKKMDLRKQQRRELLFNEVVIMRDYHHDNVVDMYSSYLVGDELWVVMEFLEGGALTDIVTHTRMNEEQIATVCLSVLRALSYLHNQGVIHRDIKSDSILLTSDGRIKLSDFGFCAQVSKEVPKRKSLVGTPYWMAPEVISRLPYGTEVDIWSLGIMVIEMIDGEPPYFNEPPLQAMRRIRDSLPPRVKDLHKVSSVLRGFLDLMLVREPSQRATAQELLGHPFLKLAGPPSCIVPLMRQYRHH

## CN(C)c1ccc(/C=C2\C(=O)Nc3ccccc32)cc1
PAK2 (human)
  residual activity: 102%
EPHA3 (human)
  residual activity: 102%
DDR2 (human)
  residual activity: 103%
EPHA8 (human)
  residual activity: 103%
PAK7 (human)
  residual activity: 101%
PHKG1 (human)
  residual activity: 99.1%
HIPK2 (human)
  residual activity: 106%
PRKD3 (human)
  residual activity: 99.2%
MAPK10 (human)
  residual activity: 82.9%
CAMK1D (human)
  residual activity: 98.8%
NTRK3 (human)
  residual activity: 36.3%
PHKG2 (human)
  residual activity: 95.9%
NEK9 (human)
  residual activity: 99.8%
PAK4 (human)
  residual activity: 101%
MELK (human)
  residual activity: 89.3%
PRKCA (human)
  residual activity: 94.5%
RPS6KA5 KD2 (human)
  residual activity: 98.7%
MAP3K9 (human)
  residual activity: 90.2%
DYRK3 (human)
  residual activity: 99.5%
MAPK3 (human)
  residual activity: 102%
MARK2 (human)
  residual activity: 105%
CDK5 CDK5R1 p25 (human)
  residual activity: 102%
SGK3 (human)
  residual activity: 107%
CLK1 (human)
  residual activity: 103%
NLK (human)
  residual activity: 102%
MLTK (human)
  residual activity: 96.5%
PBK (human)
  residual activity: 101%
GRK6 (human)
  residual activity: 102%
PRKD2 (human)
  residual activity: 95.2%
IKBKE (human)
  residual activity: 98.2%
SRC (human)
  residual activity: 102%
ACVRL1 (human)
  residual activity: 104%
IGF1R (human)
  residual activity: 101%
MAPK14 (human)
  residual activity: 92.4%
ZAP70 (human)
  residual activity: 89.9%
ALK (human)
  residual activity: 99.7%
LCK (human)
  residual activity: 93%
AKT2 (human)
  residual activity: 98.1%
CSK (human)
  residual activity: 96.9%
STK3 (human)
  residual activity: 100%
GRK4 (human)
  residual activity: 103%
PLK1 (human)
  residual activity: 103%

## COc1ccc2c(c1)/C(=C/c1cnc[nH]1)C(O)=N2
PAK2 (human)
  residual activity: 97.7%
EPHA3 (human)
  residual activity: 93.3%
DDR2 (human)
  residual activity: 95.5%
EPHA8 (human)
  residual activity: 103%
PAK7 (human)
  residual activity: 96.9%
PHKG1 (human)
  residual activity: 53.8%
HIPK2 (human)
  residual activity: 100%
PRKD3 (human)
  residual activity: 38%
MAPK10 (human)
  residual activity: 105%
CAMK1D (human)
  residual activity: 98.3%
NTRK3 (human)
  residual activity: 9.35%
PHKG2 (human)
  residual activity: 88.3%
NEK9 (human)
  residual activity: 83.2%
PAK4 (human)
  residual activity: 100%
MELK (human)
  residual activity: 36.5%
PRKCA (human)
  residual activity: 91.3%
RPS6KA5 KD2 (human)
  residual activity: 89.2%
MAP3K9 (human)
  residual activity: 58%
DYRK3 (human)
  residual activity: 98.6%
MAPK3 (human)
  residual activity: 87.2%
MARK2 (human)
  residual activity: 50%
CDK5 CDK5R1 p25 (human)
  residual activity: 4.52%
SGK3 (human)
  residual activity: 101%
CLK1 (human)
  residual activity: 87.3%
NLK (human)
  residual activity: 69.7%
MLTK (human)
  residual activity: 91.4%
PBK (human)
  residual activity: 124%
GRK6 (human)
  residual activity: 85.2%
PRKD2 (human)
  residual activity: 60.2%
IKBKE (human)
  residual activity: 92.5%
SRC (human)
  residual activity: 92.1%
ACVRL1 (human)
  residual activity: 98.7%
IGF1R (human)
  residual activity: 94.4%
MAPK14 (human)
  residual activity: 97.7%
ZAP70 (human)
  residual activity: 92.8%
ALK (human)
  residual activity: 112%
LCK (human)
  residual activity: 92%
AKT2 (human)
  residual activity: 106%
CSK (human)
  residual activity: 96.1%
STK3 (human)
  residual activity: 12.2%
GRK4 (human)
  residual activity: 93.6%
PLK1 (human)
  residual activity: 103%

## Cn1c2ccccc2c2c3c(c4c5ccccc5n(CCC#N)c4c21)CNC3=O
PAK2 (human)
  residual activity: 91.7%
EPHA3 (human)
  residual activity: 97.9%
DDR2 (human)
  residual activity: 73.3%
EPHA8 (human)
  residual activity: 91.7%
PAK7 (human)
  residual activity: 37.1%
PHKG1 (human)
  residual activity: 1.76%
HIPK2 (human)
  residual activity: 97.8%
PRKD3 (human)
  residual activity: 7.3%
MAPK10 (human)
  residual activity: 94.5%
CAMK1D (human)
  residual activity: 82.4%
NTRK3 (human)
  residual activity: 0.198%
PHKG2 (human)
  residual activity: 8.4%
NEK9 (human)
  residual activity: 96.9%
PAK4 (human)
  residual activity: 44%
MELK (human)
  residual activity: 21.1%
PRKCA (human)
  residual activity: 7.58%
RPS6KA5 KD2 (human)
  residual activity: 23.7%
MAP3K9 (human)
  residual activity: 1.49%
DYRK3 (human)
  residual activity: 83.9%
MAPK3 (human)
  residual activity: 72.6%
MARK2 (human)
  residual activity: 11.8%
CDK5 CDK5R1 p25 (human)
  residual activity: 21.3%
SGK3 (human)
  residual activity: 112%
CLK1 (human)
  residual activity: 69.9%
NLK (human)
  residual activity: 57.3%
MLTK (human)
  residual activity: 86.6%
PBK (human)
  residual activity: 84.2%
GRK6 (human)
  residual activity: 44.4%
PRKD2 (human)
  residual activity: 18.7%
IKBKE (human)
  residual activity: 69.4%
SRC (human)
  residual activity: 74.8%
ACVRL1 (human)
  residual activity: 73.6%
IGF1R (human)
  residual activity: 98.3%
MAPK14 (human)
  residual activity: 93.5%
ZAP70 (human)
  residual activity: 77.7%
ALK (human)
  residual activity: 12.2%
AKT2 (human)
  residual activity: 110%
CSK (human)
  residual activity: 81%
STK3 (human)
  residual activity: 3.07%
GRK4 (human)
  residual activity: 75.1%
PLK1 (human)
  residual activity: 103%

## O=C1Nc2ccc(Br)cc2/C1=C\c1cc2c([nH]1)CCCC2
PAK2 (human)
  residual activity: 90%
EPHA3 (human)
  residual activity: 94.6%
DDR2 (human)
  residual activity: 101%
EPHA8 (human)
  residual activity: 94.5%
PAK7 (human)
  residual activity: 85.4%
PHKG1 (human)
  residual activity: 60.2%
HIPK2 (human)
  residual activity: 91%
PRKD3 (human)
  residual activity: 90.3%
MAPK10 (human)
  residual activity: 98.7%
CAMK1D (human)
  residual activity: 96.8%
NTRK3 (human)
  residual activity: 11.9%
PHKG2 (human)
  residual activity: 90.5%
NEK9 (human)
  residual activity: 85.6%
PAK4 (human)
  residual activity: 76.8%
MELK (human)
  residual activity: 75.6%
PRKCA (human)
  residual activity: 102%
RPS6KA5 KD2 (human)
  residual activity: 90.3%
MAP3K9 (human)
  residual activity: 53.4%
DYRK3 (human)
  residual activity: 94%
MAPK3 (human)
  residual activity: 95%
MARK2 (human)
  residual activity: 77%
CDK5 CDK5R1 p25 (human)
  residual activity: 91.3%
SGK3 (human)
  residual activity: 97.6%
CLK1 (human)
  residual activity: 97.2%
MLTK (human)
  residual activity: 87.7%
PBK (human)
  residual activity: 87.8%
GRK6 (human)
  residual activity: 95.8%
PRKD2 (human)
  residual activity: 95.8%
IKBKE (human)
  residual activity: 89.5%
SRC (human)
  residual activity: 88.8%
ACVRL1 (human)
  residual activity: 103%
IGF1R (human)
  residual activity: 74.3%
ZAP70 (human)
  residual activity: 93.9%
ALK (human)
  residual activity: 88.5%
LCK (human)
  residual activity: 84.5%
AKT2 (human)
  residual activity: 90.3%
CSK (human)
  residual activity: 98.5%
STK3 (human)
  residual activity: 60.7%
GRK4 (human)
  residual activity: 101%
PLK1 (human)
  residual activity: 102%

## CN(C)S(=O)(=O)c1ccc2c(c1)/C(=C/c1cc3c([nH]1)CCCC3)C(=O)N2
PAK2 (human)
  residual activity: 92.5%
EPHA3 (human)
  residual activity: 98.6%
EPHA8 (human)
  residual activity: 100%
PHKG1 (human)
  residual activity: 72.4%
HIPK2 (human)
  residual activity: 98.2%
PRKD3 (human)
  residual activity: 90.4%
MAPK10 (human)
  residual activity: 105%
CAMK1D (human)
  residual activity: 99.8%
NTRK3 (human)
  residual activity: 2.88%
PHKG2 (human)
  residual activity: 78.8%
NEK9 (human)
  residual activity: 93.2%
PAK4 (human)
  residual activity: 97.6%
MELK (human)
  residual activity: 89.1%
PRKCA (human)
  residual activity: 94.9%
RPS6KA5 KD2 (human)
  residual activity: 106%
MAP3K9 (human)
  residual activity: 74.6%
DYRK3 (human)
  residual activity: 99.1%
MAPK3 (human)
  residual activity: 102%
MARK2 (human)
  residual activity: 61.7%
CDK5 CDK5R1 p25 (human)
  residual activity: 72.9%
SGK3 (human)
  residual activity: 98.1%
CLK1 (human)
  residual activity: 82.6%
NLK (human)
  residual activity: 99.7%
MLTK (human)
  residual activity: 99.4%
PBK (human)
  residual activity: 99.7%
GRK6 (human)
  residual activity: 82.6%
PRKD2 (human)
  residual activity: 102%
IKBKE (human)
  residual activity: 87.9%
SRC (human)
  residual activity: 23.6%
ACVRL1 (human)
  residual activity: 102%
IGF1R (human)
  residual activity: 89.5%
MAPK14 (human)
  residual activity: 98.8%
ZAP70 (human)
  residual activity: 90%
ALK (human)
  residual activity: 43.6%
LCK (human)
  residual activity: 34.7%
AKT2 (human)
  residual activity: 105%
CSK (human)
  residual activity: 93.1%
STK3 (human)
  residual activity: 24.3%
GRK4 (human)
  residual activity: 79.8%
PLK1 (human)
  residual activity: 101%
